The values that follow come from patent US11273168B2, “Methods of treating anxiety by administering a substituted quinolone” (OTSUKA PHARMACEUTICAL CO., LTD., priority 2010, dated 2022).

Counter-ions that a name gives are not always drawn.

What all share (format): biochemical
The target in assay [1] is Norepinephrine (NE) uptake (Rattus norvegicus, UniProt Q9WTR4). Put plainly: Norepinephrine (NE) uptake inhibitory activity using rat brain synaptosome (hippocampus). The following applies: tritium-labeled NE 12 nM, 37° C. ten minutes, read-out: 50% inhibitory concentration. On the procedure:
Measurement of Norepinephrine (NE) Uptake Inhibitory Activity of Test Compound Using Rat Brain Synaptosome
Male Wistar rats were decapitated, and their brains were removed and dissected to remove the hippocampus. The separated hippocampus was placed in a 20-fold weight of a 0.32 molarity (M) sucrose solution and homogenized with a potter homogenizer. The homogenate was centrifuged at 1000 g at 4° C. for 10 minutes, and the supernatant was further centrifuged at 20000 g at 4° C. for 20 minutes. The pellet was suspended in an incubation buffer (20 mM HEPES buffer (pH 7.4) containing 10 mM glucose, 145 mM sodium chloride, 4.5 mM potassium chloride, 1.2 mM magnesium chloride, and 1.5 mM calcium chloride). The suspension was used as a crude synaptosome fraction.
(§1) Uptake reaction was performed using each well of a 96-well round-bottom plate and a 200 μl volume in total of a solution containing pargyline (final concentration: 10 μM) and ascorbic acid (final concentration: 0.2 mg/ml).
(§2) Specifically, a solvent, unlabeled NE, and serially diluted test compounds were separately added to the wells, and the synaptosome fraction was added in an amount 1/10 of the final volume to each well and preincubated at 37° C. for 10 minutes. Then, a tritium-labeled NE solution (final concentration: 12 nM) was added thereto to initiate uptake reaction at 37° C. Ten minutes later, the uptake reaction was terminated by suction filtration through a 96-well glass fiber filter plate. Furthermore, the filter was washed with a cold saline and then sufficiently dried. MicroScint-O (PerkinElmer Co., Ltd.) was added thereto, and the residual radioactivity on the filter was measured.
An uptake value obtained by the addition of only the solvent was defined as 100%, and an uptake value (nonspecific uptake value) obtained by the addition of the unlabeled NE (final concentration: 10 μM) was defined as 0%. A 50% inhibitory concentration was calculated from the test compound concentrations and inhibitory activities thereat.

A further assay concerns the target T1, Dopamine (DA) uptake (Rattus norvegicus, UniProt P23977).
T1 construct: The suspension was used as a crude synaptosome fraction; from tissue; host or cells: rat (male Wistar) corpus striatum, crude synaptosome fraction
The assay can be described thus: Dopamine (DA) uptake inhibitory activity using rat brain synaptosome (corpus striatum). The following applies: tritium-labeled DA 2 nM, 37° C. ten minutes, read-out: 50% Inhibitory concentration. On the procedure:
Measurement of Dopamine (DA) Uptake Inhibitory Activity of Test Compound Using Rat Brain Synaptosome
Male Wistar rats were decapitated, and their brains were removed and dissected to remove the corpus striatum. The separated corpus striatum was placed in a 20-fold weight of a 0.32 molarity (M) sucrose solution and homogenized with a potter homogenizer. The homogenate was centrifuged at 1000 g at 4° C. for 10 minutes, and the supernatant was further centrifuged at 20000 g at 4° C. for 20 minutes. […] The suspension was used as a crude synaptosome fraction.
Uptake reaction was performed using each well of a 96-well round-bottom plate and a 200 μl volume in total of a solution containing pargyline (final concentration: 10 μM) and ascorbic acid (final concentration: 0.2 mg/mil).
as §2, with “DA,” for “NE,”, “DA” for “NE”, “2” for “12”
An uptake value obtained by the addition of only the solvent was defined as 100%, and an uptake value (nonspecific uptake value) obtained by the addition of the unlabeled DA (final concentration: 10 μM) was defined as 0%. A 50% inhibitory concentration was calculated from the test compound concentrations and inhibitory activities thereat.

The target of the next assay is T2, Serotonin (5-HT) uptake (Rattus norvegicus, UniProt P31652).
T2 construct: The suspension was used as a crude synaptosome fraction; from tissue; host or cells: rat (male Wistar) frontal cortex, crude synaptosome fraction
Put plainly: Serotonin (5-HT) uptake inhibitory activity using rat brain synaptosome (frontal cortex). The following applies: tritium-labeled 5-HT 8 nM, 37° C. 10 minutes, read-out: 50% Inhibitory concentration. On the procedure:
Measurement of Serotonin (5-HT) Uptake Inhibitory Activity of Test Compound Using Rat Brain Synaptosome
Male Wistar rats were decapitated, and their brains were removed and dissected to remove the frontal cortex. The separated frontal cortex was placed in a 20-fold weight of a 0.32 molarity (M) sucrose solution and homogenized with a potter homogenizer. The homogenate was centrifuged at 1000 g at 4° C. for 10 minutes, and the supernatant was further centrifuged at 20000 g at 4° C. for 20 minutes. […] The suspension was used as a crude synaptosome fraction.
as §1
as §2, with “5-HT,” for “NE,”, “5-HT” for “NE”, “8” for “12”, “10” for “Ten”
An uptake value obtained by the addition of only the solvent was defined as 100%, and an uptake value (nonspecific uptake value) obtained by the addition of the unlabeled 5-HT (final concentration: 10 μM) was defined as 0%. A 50%, inhibitory concentration was calculated from the test compound concentrations and inhibitory activities thereat.

T1 sequence (P23977 whole entry): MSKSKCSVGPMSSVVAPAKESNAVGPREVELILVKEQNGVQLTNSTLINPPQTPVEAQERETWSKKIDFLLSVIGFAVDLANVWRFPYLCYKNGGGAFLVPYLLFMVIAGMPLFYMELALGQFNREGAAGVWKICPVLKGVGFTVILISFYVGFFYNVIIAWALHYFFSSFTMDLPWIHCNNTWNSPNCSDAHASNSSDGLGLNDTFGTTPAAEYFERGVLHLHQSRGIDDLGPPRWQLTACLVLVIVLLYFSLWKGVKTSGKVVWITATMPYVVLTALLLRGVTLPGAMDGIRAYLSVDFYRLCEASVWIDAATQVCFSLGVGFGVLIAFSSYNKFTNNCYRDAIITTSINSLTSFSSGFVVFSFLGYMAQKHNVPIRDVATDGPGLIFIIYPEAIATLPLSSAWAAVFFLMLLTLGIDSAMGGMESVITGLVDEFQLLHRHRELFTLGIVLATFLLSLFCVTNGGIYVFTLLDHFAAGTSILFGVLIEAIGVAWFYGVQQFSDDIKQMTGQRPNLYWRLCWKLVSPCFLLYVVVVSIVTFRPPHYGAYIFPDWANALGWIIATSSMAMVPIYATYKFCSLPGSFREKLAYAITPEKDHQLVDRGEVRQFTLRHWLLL
T2 sequence (P31652 whole entry): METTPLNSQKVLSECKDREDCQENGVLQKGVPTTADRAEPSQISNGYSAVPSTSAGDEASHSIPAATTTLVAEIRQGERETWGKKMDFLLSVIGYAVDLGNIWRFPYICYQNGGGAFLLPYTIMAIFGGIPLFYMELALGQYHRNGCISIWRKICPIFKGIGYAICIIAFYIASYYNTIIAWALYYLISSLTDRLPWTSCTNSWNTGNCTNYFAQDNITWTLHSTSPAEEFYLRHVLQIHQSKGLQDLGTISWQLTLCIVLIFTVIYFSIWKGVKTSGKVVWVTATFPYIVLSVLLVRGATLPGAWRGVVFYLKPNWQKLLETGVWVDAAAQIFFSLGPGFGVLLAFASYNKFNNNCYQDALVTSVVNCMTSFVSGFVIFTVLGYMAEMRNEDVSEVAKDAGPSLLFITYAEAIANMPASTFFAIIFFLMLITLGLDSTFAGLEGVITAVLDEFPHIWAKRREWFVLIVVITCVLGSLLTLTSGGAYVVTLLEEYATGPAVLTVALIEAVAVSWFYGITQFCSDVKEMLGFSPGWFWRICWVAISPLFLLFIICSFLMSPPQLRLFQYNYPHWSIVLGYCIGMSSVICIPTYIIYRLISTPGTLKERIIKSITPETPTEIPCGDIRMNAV

For `Cc1noc(-c2ccc(N3C[C@@H](C)N[C@H]4CCCC[C@@H]43)cc2)n1` [Example 1333], the IC50 in assay [1] was found to be 39.6 nM; at Dopamine (DA) uptake it was 73 nM; at Serotonin (5-HT) uptake, 84.2 nM.
Take `COc1c(F)cc(N2CC(C)(C)N[C@H]3CCCC[C@@H]32)cc1F` [Example 233]: the IC50 came to 3.7 nM in assay [1], 38.8 nM on Dopamine (DA) uptake and 7.4 nM at Serotonin (5-HT) uptake.
In the case of `c1cc2cc(N3CC4(CCCC4)N[C@H]4CCCC[C@@H]43)ccc2s1` (relative stereo) [Example 307], the IC50 in assay [1] is 40.4 nM; on Dopamine (DA) uptake, 68.2 nM; on Serotonin (5-HT) uptake it was 19.3 nM.
On to `CC1(C)CN(c2csc3ccccc23)[C@@H]2CCCC[C@@H]2N1` [Example 717], for which the values for the IC50 (in assay [1]; at Dopamine (DA) uptake; at Serotonin (5-HT) uptake) were 4.8 nM, 60.1 nM and 4.2 nM, respectively.
As to `CN1[C@H]2CCCC[C@@H]2N(c2ccc(Cl)c(Cl)c2)CC1(C)C` [Example 247], the values for the IC50 (in assay [1]; at Dopamine (DA) uptake; on Serotonin (5-HT) uptake) were 6.6 nM, 8.7 nM and 42.8 nM, respectively.
The like results for `CC1(C)CN(c2ccc3[nH]c(C#N)cc3c2)[C@H]2CCCC[C@H]2N1` [Example 781] were, in that order, 3 nM, 5.2 nM and 6.2 nM.
The like results for `C[C@@H]1CN(c2ccc3ncsc3c2)[C@H]2CCCC[C@@H]2N1` [Example 1326] were, in that order, 1.8 nM, 91.8 nM and 37.8 nM.
The like results for `CC1(C)CN(c2ccc3[nH]c(C#N)cc3c2)[C@@H]2CCCC[C@H]2N1` [Example 993] were, in that order, 8.7 nM, 38.6 nM and 4.8 nM.
Turning to `c1cc(N2CC3(CCC3)N[C@H]3CCCC[C@@H]32)c2ccoc2c1` [Example 1047], the IC50 in assay [1] was 0.7 nM; at Dopamine (DA) uptake it was 1.1 nM; on Serotonin (5-HT) uptake, 0.7 nM.
Consider `CC1(C)CN(c2cccc3[nH]ccc23)[C@@H]2CCCC[C@@H]2N1` [Example 85], for which the figures for the IC50 (in assay [1]; on Dopamine (DA) uptake; on Serotonin (5-HT) uptake) were 4.9 nM, 95.7 nM and 7.2 nM, respectively.
Consider `CC[C@@H]1CN(c2ccc3ccccc3c2)[C@H]2CCCC[C@@H]2N1C` (relative stereo) [Example 288], for which the IC50 in assay [1] came out at 22 nM; on Dopamine (DA) uptake, 74.7 nM; on Serotonin (5-HT) uptake it was 56.1 nM.
For `CC1(C)CN(c2ccc(OC(F)F)c3occc23)[C@@H]2CCCC[C@H]2N1` [Example 983] the same measures were 47.6 nM, 173 nM and 6.5 nM.
The like results for `CC1(C)CN(c2csc3ccccc23)[C@H]2CCCC[C@H]2N1` [Example 841] were, in that order, 0.9 nM, 5.1 nM and 28.1 nM.
`CC1(C)CN(c2ccc(F)c3occc23)[C@H]2CCCC[C@@H]2N1` [Example 192]: the values for the IC50 (in assay [1]; on Dopamine (DA) uptake; at Serotonin (5-HT) uptake) were 3.6 nM, 8.6 nM and 2.9 nM, respectively.
The like results for `CC1(C)CN(c2ccc3ccsc3c2)[C@H]2CCCC[C@@H]2N1` [Example 188] were, in that order, 0.8 nM, 7.9 nM and 6 nM.
The like results for `CC1(C)CN(c2cccc3occc23)[C@@H]2CCCC[C@@H]2N1` (relative stereo) [Example 33] were, in that order, 0.7 nM, 15.1 nM and 2.6 nM.
The like results for `CC1(C)CN(c2ccc3sccc3c2)[C@H]2CCCC[C@@H]2N1` [Example 186] were, in that order, 3.8 nM, 29.8 nM and 5.2 nM.
As for `CC1(C)CN(c2cc(F)c(F)c3occc23)[C@@H]2CCCC[C@@H]2N1` [Example 580, (4aS,8aR)-1-(6,7-difluorobenzofuran-4-yl)-3,3-dimethyldecahydroquinoxaline hydrochloride], the IC50 in assay [1] is 5.4 nM; at Dopamine (DA) uptake, 202 nM; at Serotonin (5-HT) uptake, 2.5 nM.
Consider `CC1(C)CN(c2cccc3ccccc23)[C@H]2CCCC[C@H]2N1` [Example 118], for which the IC50 is 3.7 nM in assay [1], 8.3 nM on Dopamine (DA) uptake and 13.7 nM on Serotonin (5-HT) uptake.
On to `CC1(C)CN(c2ccc3sccc3c2)[C@@H]2CCC[C@@H]2N1` (racemic) [Example 7], for which the results for the IC50 (in assay [1]; at Dopamine (DA) uptake; at Serotonin (5-HT) uptake) were 9.5 nM, 78.9 nM and 1 nM, respectively.
As for `CC1(C)CN(c2ccccc2Cl)[C@H]2CCCC[C@H]2N1` [Example 165], the IC50 in assay [1] was 2.4 nM; at Dopamine (DA) uptake it was 6.8 nM; on Serotonin (5-HT) uptake it was 12 nM.
Consider `CC1(C)CN(c2cccc3sccc23)[C@H]2CCCC[C@H]2N1` [Example 124], for which the IC50 in assay [1] worked out at 0.8 nM; on Dopamine (DA) uptake, 9.1 nM; on Serotonin (5-HT) uptake, 8.5 nM.
For `CC1(C)CN(c2ccc(Cl)c(Cl)c2)[C@H]2CCC[C@@H]2N1` (racemic) [Example 15], the figures for the IC50 (in assay [1]; on Dopamine (DA) uptake; on Serotonin (5-HT) uptake) were 11 nM, 68.4 nM and 12.5 nM, respectively.
In the case of `CN1[C@H]2CCCC[C@@H]2N(c2ccc3sccc3c2)CC1(C)C` [Example 187], the IC50 turned out to be 6 nM in assay [1], 12.1 nM on Dopamine (DA) uptake and 5.8 nM on Serotonin (5-HT) uptake.
